From patent US11696913B2, “Prolonged ectoparasite-controlling agent for animal” (MITSUI CHEMICALS AGRO, INC., priority 2017, dated 2023)

Columns and labels:
Rhipicephalus sanguineus = experiment: In vitro contact test with adult hard ticks (Rhipicephalus sanguineus); conditions: read-out: acaricidal activity; for pest or weed control at 0.04 µg/cm2, 0.04 µg/cm2: dose 0.04 μg/cm^2, 48 h; for pest or weed control at 0.2 µg/cm2, 0.2 µg/cm2: dose 0.2 μg/cm^2, 48 h; for pest or weed control at 1 µg/cm2, 1 µg/cm2: dose 1 μg/cm^2, 48 h
How it was run: (§1)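 Acaricidal activity = % ticks dead or moribund after 48 h contact with acetone-deposited compound on vial walls (e.g., 900 ppm solution → 5 μg/cm^2). Ambient conditions for R. sanguineus, 21° C./85% rel. hum. for other species; heat challenge at 45-50° C. separated climbers from moribund ticks.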

Dermacentor variabilis = experiment: In vitro contact test with adult hard ticks (Dermacentor variabilis); conditions: read-out: acaricidal activity; for pest or weed control at 0.04 µg/cm2, 0.04 µg/cm2: dose 0.04 μg/cm^2, 48 h; for pest or weed control at 0.2 µg/cm2, 0.2 µg/cm2: dose 0.2 μg/cm^2, 48 h; for pest or weed control at 1 µg/cm2, 1 µg/cm2: dose 1 μg/cm^2, 48 h
How it was run: as §1

Laodelphax striatellus = experiment: Insecticidal testing against small brown planthopper; type: in vivo; conditions: 144 h, concentration 100 ppm, sprayed rice seedlings, after 6 days, read-out: pesticidal rate
How it was run: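 Acetone solution of compound at a set concentration sprayed onto rice seedlings, air-dried, then exposed to 10 planthoppers (one group). Held at 25° C; survival rate recorded after 6 days.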

Ctenocephalides felis [1] = experiment: Ctenocephalides felis in-vitro feeding test with fleas (CTECFE oral); conditions: 48 hours, read-out: insecticidal feeding activity; for pest or weed control at 0.032 ppm: dose 0.032 ppm in citrated cattle blood; for pest or weed control at 0.16 ppm: dose 0.16 ppm in citrated cattle blood; for pest or weed control at 0.8 ppm: dose 0.8 ppm in citrated cattle blood; for pest or weed control at 4 ppm: dose 4 ppm in citrated cattle blood
How it was run: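 Scored as percent fleas killed (0–100%) 48 hours after feeding began. Compound, dissolved in DMSO and diluted into citrated cattle blood, was offered via a parafilm membrane to roughly 20 adult male and female C. felis at about 37° C.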

Ctenocephalides felis [2] = experiment: In vitro contact test with fleas; conditions: read-out: insecticidal activity; for pest or weed control at 0.04 µg/cm2, 0.04 µg/cm2: dose 0.04 μg/cm^2, dead or moribund fleas after 48 h; for pest or weed control at 0.2 µg/cm2, 0.2 µg/cm2: dose 0.2 μg/cm^2, dead or moribund fleas after 48 h; for pest or weed control at 1 µg/cm2, 1 µg/cm2: dose 1 μg/cm^2, dead or moribund fleas after 48 h
How it was run: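 Activity is the percentage of fleas dead or moribund at 48 h, judged by immobility or uncoordinated movement after tapping. Tubes were coated by evaporating acetone solutions (900 ppm gives 5 μg/cm^2), then held 5-10 adult fleas of both sexes at room temperature and ambient humidity.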

Ixodes ricinus = experiment: In vitro contact test with adult hard ticks (Ixodes ricinus); conditions: read-out: acaricidal activity; for pest or weed control at 0.2 µg/cm2, 0.2 µg/cm2: dose 0.2 μg/cm^2, 48 h; for pest or weed control at 1 µg/cm2, 1 µg/cm2: dose 1 μg/cm^2, 48 h; for pest or weed control at 5 µg/cm2, 5 µg/cm2: dose 5 μg/cm^2, 48 h
How it was run: as §1

Spodoptera litura = experiment: Insecticidal testing against common cutworm; type: in vivo; conditions: foliar, 144 h, concentration 100 ppm, cabbage leaf dip, second-stage larvae, after 6 days, read-out: pesticidal rate
Text: Insecticidal Testing Against Common Cutworm (Spodoptera litura)

Amblyomma americanum = experiment: In vitro contact test with hard ticks (Amblyomma americanum nymphs); conditions: read-out: acaricidal activity; for pest or weed control at 0.04 µg/cm2, 0.04 µg/cm2: dose 0.04 μg/cm^2, 48 h; for pest or weed control at 0.2 µg/cm2, 0.2 µg/cm2: dose 0.2 μg/cm^2, 48 h; for pest or weed control at 1 µg/cm2, 1 µg/cm2: dose 1 μg/cm^2, 48 h
How it was run: as §1

[3] = system: Rhipicephalus (Boophilus) microplus; experiment: In vitro injection test with Rhipicephalus (Boophilus) microplus (BOOPMI Inj); conditions: 168 h, laid fertile eggs after 7 days, read-out: acaricidal activity; for pest or weed control at 32 ng: dose 0.032 μg/animal injected; for pest or weed control at 0.00016 mg: dose 0.16 μg/animal injected; for pest or weed control at 0.0008 mg: dose 0.8 μg/animal injected
How it was run: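 Five engorged adult females each get a 1 μl abdominal injection of compound dissolved and diluted in DMSO. Kept 7 days at 28° C./85% rel. hum.; percent activity rates egg laying and egg fertility (0% all fertile, 100% none laid or infertile).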

Plutella xylostella = experiment: Insecticidal testing against diamondback moth; type: in vivo; conditions: foliar, 144 h, concentration 100 ppm, cabbage leaf dip, third-stage larvae, after 6 days, read-out: pesticidal rate
Text: Insecticidal Testing Against Diamondback Moth (Plutella xylostella)

| Compound | pest or weed control at 0.2 µg/cm2, 0.2 µg/cm2 (Rhipicephalus sanguineus) | pest or weed control at 1 µg/cm2, 1 µg/cm2 (Rhipicephalus sanguineus) | pest or weed control at 0.2 µg/cm2, 0.2 µg/cm2 (Dermacentor variabilis) | pest or weed control at 1 µg/cm2, 1 µg/cm2 (Dermacentor variabilis) | pest or weed control at 100 ppm (Laodelphax striatellus) | pest or weed control at 0.16 ppm (Ctenocephalides felis [1]) | pest or weed control at 0.8 ppm (Ctenocephalides felis [1]) | pest or weed control at 4 ppm (Ctenocephalides felis [1]) | pest or weed control at 0.04 µg/cm2, 0.04 µg/cm2 (Ctenocephalides felis [2]) | pest or weed control at 0.2 µg/cm2, 0.2 µg/cm2 (Ctenocephalides felis [2]) | pest or weed control at 1 µg/cm2, 1 µg/cm2 (Ctenocephalides felis [2]) | pest or weed control at 0.2 µg/cm2, 0.2 µg/cm2 (Ixodes ricinus) | pest or weed control at 1 µg/cm2, 1 µg/cm2 (Ixodes ricinus) | pest or weed control at 5 µg/cm2, 5 µg/cm2 (Ixodes ricinus) | pest or weed control at 100 ppm (Spodoptera litura) | pest or weed control at 0.2 µg/cm2, 0.2 µg/cm2 (Amblyomma americanum) | pest or weed control at 1 µg/cm2, 1 µg/cm2 (Amblyomma americanum) | pest or weed control at 0.00016 mg [3] | pest or weed control at 0.0008 mg [3] | pest or weed control at 100 ppm (Plutella xylostella) | other results |
| --- | --- | --- | --- | --- | --- | --- | --- | --- | --- | --- | --- | --- | --- | --- | --- | --- | --- | --- | --- | --- | --- |
| O=C(Nc1cccc(C(=O)Nc2c(Br)cc(C(F)(C(F)(F)F)C(F)(F)F)cc2OC(F)F)c1F)c1ccc(F)cc1 [Compound 91] | 90% | 90% | 90% | 90% | ≥ 70% | 95% | 95% | 95% | 95% | 95% | 95% | 90% | 90% | 90% | ≥ 70% | 90% | 90% | 100% | 100% | ≥ 70% | pest or weed control at 0.04 µg/cm2, 0.04 µg/cm2 (Rhipicephalus sanguineus): 90%; pest or weed control at 0.04 µg/cm2, 0.04 µg/cm2 (Dermacentor variabilis): 90%; pest or weed control at 0.032 ppm (Ctenocephalides felis [1]): 95%; pest or weed control at 0.04 µg/cm2, 0.04 µg/cm2 (Amblyomma americanum): 90%; pest or weed control at 32 ng [3]: 100% |
| O=C(Nc1cccc(C(=O)Nc2c(I)cc(C(F)(C(F)(F)F)C(F)(F)F)cc2OC(F)F)c1F)c1ccc(F)cc1 [Compound 92] | 90% | 90% | 90% | – | ≥ 70% | 95% | 95% | 95% | 95% | 95% | 95% | 90% | 90% | 90% | ≥ 70% | 90% | 90% | 100% | 100% | ≥ 70% | pest or weed control at 0.04 µg/cm2, 0.04 µg/cm2 (Rhipicephalus sanguineus): 90%; pest or weed control at 0.04 µg/cm2, 0.04 µg/cm2 (Dermacentor variabilis): 90%; pest or weed control at 0.032 ppm (Ctenocephalides felis [1]): 95%; pest or weed control at 6.4 ng ([3]; dose 0.0064 μg/animal injected): 100%; pest or weed control at 32 ng [3]: 100% |
| O=C(Nc1cccc(C(=O)Nc2c(Br)cc(C(F)(C(F)(F)F)C(F)(F)C(F)(F)F)cc2OC(F)(F)F)c1F)c1ccc(F)cc1 (centres unmarked) [Compound 95] | 90% | 90% | – | 90% | ≥ 70% | 95% | 95% | 95% | – | 95% | 95% | 90% | 90% | 90% | ≥ 70% | 90% | 90% | 100% | 100% | ≥ 70% | pest or weed control at 0.04 µg/cm2, 0.04 µg/cm2 (Rhipicephalus sanguineus): 90%; pest or weed control at 0.04 µg/cm2, 0.04 µg/cm2 (Amblyomma americanum): 90%; pest or weed control at 32 ng [3]: 100% |
| O=C(Nc1cccc(C(=O)Nc2c(I)cc(C(F)(C(F)(F)F)C(F)(F)F)cc2OC(F)(F)F)c1F)c1ccc(F)c(F)c1 [Compound 97] | 90% | 90% | 90% | 90% | ≥ 70% | 95% | 95% | 95% | 95% | 95% | 95% | 90% | 90% | 90% | ≥ 70% | 90% | 90% | 100% | 100% | ≥ 70% | pest or weed control at 0.04 µg/cm2, 0.04 µg/cm2 (Dermacentor variabilis): 90% |
| O=C(Nc1cccc(C(=O)Nc2c(Br)cc(C(F)(C(F)(F)F)C(F)(F)F)cc2OC(F)(F)F)c1F)c1ccc(F)c(F)c1 [Compound 101] | 90% | 90% | 90% | 90% | ≥ 70% | 95% | 95% | 95% | 95% | 95% | 95% | 90% | 90% | 90% | ≥ 70% | 90% | 90% | 100% | 100% | ≥ 70% | – |
| O=C(Nc1cccc(C(=O)Nc2c(I)cc(C(F)(C(F)(F)F)C(F)(F)C(F)(F)F)cc2C(F)(F)F)c1F)c1ccc(C(F)(F)F)nc1 (centres unmarked) [Compound 102] | 90% | 90% | – | 90% | ≥ 70% | 95% | 95% | 95% | – | 95% | 95% | – | – | 90% | ≥ 70% | 90% | 90% | 100% | 100% | ≥ 70% | pest or weed control at 0.032 ppm (Ctenocephalides felis [1]): 95%; pest or weed control at 32 ng [3]: 100% |
| CN(C(=O)c1ccc(F)cc1)c1cccc(C(=O)Nc2c(Br)cc(C(F)(C(F)(F)F)C(F)(F)C(F)(F)F)cc2OC(F)F)c1F (centres unmarked) [Compound 105] | – | 90% | 90% | 90% | ≥ 70% | 95% | 95% | 95% | 95% | 95% | 95% | – | 90% | 90% | ≥ 70% | – | 90% | 100% | 100% | ≥ 70% | pest or weed control at 0.032 ppm (Ctenocephalides felis [1]): 95%; pest or weed control at 0.04 µg/cm2, 0.04 µg/cm2 (Amblyomma americanum): 90%; pest or weed control at 32 ng [3]: 100% |
